Like-named read-outs stand apart in the source and are kept apart here. *1 amine or outer side, *2 acyl side, *3 side chain or, on linkers, in order; H or OH if unused. Where a SMILES comes first, the peptide text is derived from it. Bridges are numbered along the chain shown (N, C = ends). [ ]: non-standard residue; d: D form. The star is where a group is joined. hPhe(3-Cl-4-CF3) = N[C@@H](CCc1ccc(C(F)(F)F)c(Cl)c1)C(=O)O; X42 = Cc1ccc(C[C@@H](C(=O)[*:2])N(CCC(F)(F)F)[*:1])cc1; NPrPhe(4-CF3) = CCCN[C@@H](Cc1ccc(C(F)(F)F)cc1)C(=O)O; NMePhe(4-Me) = CN[C@@H](Cc1ccc(C)cc1)C(=O)O; NMeGly(cPent) = CN[C@H](C(=O)O)C1CCCC1; Hyp = O=C(O)[C@@H]1C[C@@H](O)CN1; NMeD = CN[C@@H](CC(=O)O)C(=O)O; NMeL = CN[C@@H](CC(C)C)C(=O)O; Morpholide = C1CN(*)CCO1; NMeA = CN[C@@H](C)C(=O)O; Ac5c = NC1(C(=O)O)CCCC1; Aze = O=C(O)[C@@H]1CCN1; Ac4c = NC1(C(=O)O)CCC1; NEtG = CCNCC(=O)O; Sar = CNCC(=O)O
What was measured:
[1] = molecular target: GDP-bound NRAS wild-type protein (Homo sapiens, UniProt P01111); test: Binding to NRAS by surface plasmon resonance (SPR), KD and KD ratio to KRAS
Chain of GDP-bound NRAS wild-type protein (P01111 whole entry): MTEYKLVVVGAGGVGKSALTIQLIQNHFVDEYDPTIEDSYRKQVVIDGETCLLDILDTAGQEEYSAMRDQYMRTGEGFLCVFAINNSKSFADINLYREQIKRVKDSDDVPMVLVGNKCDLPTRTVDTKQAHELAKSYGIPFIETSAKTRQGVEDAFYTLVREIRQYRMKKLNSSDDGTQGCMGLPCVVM
Procedure, shortened: (§1)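 Each cycle, GDP-bound biotin-Avi RAS was captured (~100–300 RU), compound concentrations were injected low to high for 75 s each at 100 µL/min, then the chip was regenerated. Buffer: HBS pH 7.4, 10 mM MgCl2, 10 µM GDP, 1 mM DTT, 4% DMSO; 30°C. KD from a 1:1 binding model.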

[2] = molecular target: HRAS wild-type protein (Homo sapiens, UniProt P01112); test: Binding to HRAS by surface plasmon resonance (SPR), KD and KD ratio to KRAS
Chain of HRAS wild-type protein (P01112 whole entry): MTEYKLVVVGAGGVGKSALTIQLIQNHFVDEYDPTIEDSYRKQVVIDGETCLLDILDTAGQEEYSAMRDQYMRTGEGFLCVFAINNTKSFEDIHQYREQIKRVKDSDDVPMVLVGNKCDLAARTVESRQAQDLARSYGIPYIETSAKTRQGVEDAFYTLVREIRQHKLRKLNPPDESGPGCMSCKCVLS
Procedure, shortened: as §1

[3] = test system: human lung cancer strain NCI-H441; assay type: cell-based
Procedure, shortened: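 Signal came from […] measured per well once the reagent was added. Beforehand, cells were cultured at 37°C and 5% carbon dioxide on a compound series serially diluted in dimethyl sulfoxide.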

[4] = ratio of KD for GDP-bound NRAS wild-type protein to KD for KRAS
[5] = ratio of KD for HRAS wild-type protein to KD for KRAS
[6] = ratio of the KD value with respect to GDP-bound NRAS wild-type protein to the KD value with respect to KRAS
[7] = ratio of the KD value with respect to HRAS wild-type protein to the KD value with respect to KRAS
[8] = NCI-H441 cells, 4 days, CellTiter-Glo, read-out: NCl-H441 IC50

Structure (SMILES)	NRAS /KRAS [1, 4]	HRAS /KRAS [2, 5]	IC50 [3] [nM]	NRAS /KRAS [1, 6]	HRAS /KRAS [2, 7]	IC50 [3, 8] [nM]
CC[C@H](C)[C@@H]1NC(=O)[C@H](CC(C)C)N(C)C(=O)C[C@@H](C(=O)N2CCOCC2)N(C)C(=O)[C@H](C2CCCC2)N(C)C(=O)C2(CCCC2)NC(=O)[C@@H]2CCCN2C(=O)[C@H](CCc2ccc(C(F)(F)F)c(Cl)c2)NC(=O)CN(CC)C(=O)[C@H](Cc2ccc(C)cc2)N(C)C(=O)CN(CC)C(=O)CN(C)C1=O [PP0029] ([NMeL]I[Sar][NEtG][NMePhe(4-Me)][NEtG][hPhe(3-Cl-4-CF3)]P[Ac5c][NMeGly(cPent)][NMeD]-Morpholide; lactam N-11)	C (A compound having a KD ratio of 0.1 or more and less than 3 is denoted as C)	C (A compound having a KD ratio of 0.1 or more and less than 3 is denoted as C)	26.4			
CCCN(C)C(=O)[C@@H]1CC(=O)N(C)[C@@H](CC(F)F)C(=O)N[C@@H]([C@@H](C)CC)C(=O)N(C)CC(=O)N(C)[C@H]2C/C=C\CCN(C2=O)[C@@H](Cc2ccc(C(F)(F)F)cc2)C(=O)N(C)CC(=O)N[C@@H](CCc2cc(F)c(C(F)(F)F)c(F)c2)C(=O)N2C[C@@H](C)C[C@H]2C(=O)NC2(CC(C)(C)C2)C(=O)N(C)[C@@H](C2CCCC2)C(=O)N1C [PP2040]			10.5	A (a compound having 10 or more and less than 20 is denoted as A)	A (a compound having 10 or more and less than 20 is denoted as A)	
CC[C@H](C)[C@@H]1NC(=O)[C@H](C)N(C)C(=O)C[C@@H](C(=O)N2CCOCC2)N(C)C(=O)[C@H](C2CCCC2)N(C)C(=O)C2(CCCC2)NC(=O)[C@@H]2CCCN2C(=O)[C@H](CCc2cc(F)c(C(F)(F)F)c(F)c2)NC(=O)CN(C)C(=O)[C@H](Cc2ccc(C(F)(F)F)cc2)N2CCCCC[C@@H](C2=O)N(C)C(=O)CN(C)C1=O [PP0487]			260	B (a compound having 3 or more and less than 10 is denoted as B)	B (a compound having 3 or more and less than 10 is denoted as B)	
CCC[C@H]1C(=O)N[C@@H](C2CCCC2)C(=O)N(C)CC(=O)N(C)[C@H]2C/C=C\CCN(C2=O)[C@@H](Cc2ccc(C)cc2)C(=O)N(C)CC(=O)N[C@@H](CCc2ccc(C(F)(F)F)c(OC)c2)C(=O)N2C[C@H](OCC)C[C@H]2C(=O)NC2(CC(C)(C)C2)C(=O)N(C)[C@@H](C2CCCC2)C(=O)N(C)[C@H](C(=O)N(C)C)CC(=O)N1C [PP2992]	AA (a compound having 20 or more is denoted as AA)	A (a compound having 10 or more and less than 20 is denoted as A)	7.5			
CCO[C@@H]1C[C@H]2C(=O)NC3(CCC3)C(=O)N(C)[C@@H](C3CCCC3)C(=O)N(C)[C@H](C(=O)N(C)C)CC(=O)N(C)[C@@H](CC3CCCC3)C(=O)N[C@@H]([C@@H](C)CC)C(=O)N(C)CC(=O)N(C)[C@H]3C/C=C\CCN(C3=O)[C@@H](Cc3ccc(C)cc3)C(=O)N(C)CC(=O)N[C@@H](CCc3cc(Cl)c(C(F)(F)F)c(Cl)c3)C(=O)N2C1 [PP2679]	A (a compound having 10 or more and less than 20 is denoted as A)	A (a compound having 10 or more and less than 20 is denoted as A)	17.7			
CCC[C@@H]1C[C@H]2C(=O)NC3(CCCC3)C(=O)N(C)[C@@H](C3CCCC3)C(=O)N(C)[C@H](C(=O)N(C)CC)CC(=O)N(C)[C@@H](C)C(=O)N[C@@H]([C@@H](C)CC)C(=O)N(C)CC(=O)N(C)[C@H]3C/C=C\CCN(C3=O)[C@@H](Cc3ccc(C(F)(F)F)cc3)C(=O)N(C)CC(=O)N[C@@H](CCc3cc(F)c(C(F)(F)F)c(F)c3)C(=O)N2C1 [PP2272]			106	AA (a compound having 20 or more is denoted as AA)	A (a compound having 10 or more and less than 20 is denoted as A)	
CCOC[C@H]1C(=O)N[C@@H]([C@@H](C)CC)C(=O)N(C)CC(=O)N(C)[C@H]2C/C=C\CCN(C2=O)[C@@H](Cc2ccc(C3CC3)cc2)C(=O)N(C)CC(=O)N[C@@H](CCc2ccc(C(F)(F)F)c(OC)c2)C(=O)N2C[C@@H](C)C[C@H]2C(=O)NC2(CC(C)(C)C2)C(=O)N(C)[C@@H](C2CCCC2)C(=O)N(C)[C@H](C(=O)N(C)CC)CC(=O)N1C [PP2700]	A (a compound having 10 or more and less than 20 is denoted as A)	B (a compound having 3 or more and less than 10 is denoted as B)				23.1
CC[C@H](C)[C@@H]1NC(=O)[C@H](CC(C)C)N(C)C(=O)C[C@@H](C(=O)N2CCOCC2)N(C)C(=O)[C@H](C2CCCC2)N(C)C(=O)C2(CCCC2)NC(=O)[C@@H]2CCCN2C(=O)[C@H](CCc2ccc(C(F)(F)F)c(Cl)c2)NC(=O)CN(C)C(=O)[C@H](Cc2ccc(OC)cc2)N2CC=CC[C@@H](C2=O)N(C)C(=O)CN(C)C1=O [PP0535]			55.4	C (A compound having a KD ratio of 0.1 or more and less than 3 is denoted as C)	B (a compound having 3 or more and less than 10 is denoted as B)	
CCC[C@H]1C(=O)N[C@@H]([C@@H](C)CC)C(=O)N(C)CC(=O)N(C)[C@H]2C/C=C\CCN(C2=O)[C@@H](Cc2ccc(C(F)(F)F)cc2)C(=O)N(C)CC(=O)N[C@@H](CCc2ccc(CC)c(F)c2)C(=O)N2C[C@H](OCC)C[C@H]2C(=O)NC2(CC(C)(C)C2)C(=O)N(C)[C@@H](C2CCCC2)C(=O)N(C)[C@H](C(=O)N(C)C)CC(=O)N1C [PP2856]	A (a compound having 10 or more and less than 20 is denoted as A)	A (a compound having 10 or more and less than 20 is denoted as A)				33.5
CCCN1C(=O)[C@H](C2CCCC2)N(C)C(=O)C2(CCC2)NC(=O)[C@@H]2C[C@@H](OCC)CN2C(=O)[C@H](CCc2cc(F)c(C(F)(F)F)c(F)c2)NC(=O)CN(C)C(=O)[C@H](Cc2ccc(C(F)(F)F)cc2)N2CCCCC[C@@H](C2=O)N(C)C(=O)CN(C)C(=O)[C@H]([C@@H](C)CC)NC(=O)[C@H](CC(C)C)N(C)C(=O)C[C@H]1C(=O)N1CCOCC1 [PP0639]			631	B (a compound having 3 or more and less than 10 is denoted as B)	B (a compound having 3 or more and less than 10 is denoted as B)	
CC[C@H](C)[C@@H]1NC(=O)[C@H](CC(C)C)N(C)C(=O)C[C@@H](C(=O)N2CCOCC2)N(C)C(=O)[C@H](C2CCCC2)N(C)C(=O)C2(CCCC2)NC(=O)[C@@H]2CCCN2C(=O)[C@H](CCc2ccc(C(F)(F)F)c(Cl)c2)NC(=O)CN(C)C(=O)[C@H](Cc2ccc(C)cc2)N(CCC(F)(F)F)C(=O)CN(C)C(=O)CN(C)C1=O [PP0103] ([NMeL]I[Sar][Sar][X42][Sar][hPhe(3-Cl-4-CF3)]P[Ac5c][NMeGly(cPent)][NMeD]-Morpholide; lactam N-11)	B (a compound having 3 or more and less than 10 is denoted as B)	C (A compound having a KD ratio of 0.1 or more and less than 3 is denoted as C)	8.2			
CCCN1C(=O)[C@@H]2CCN2C(=O)[C@H](C)N(C)C(=O)[C@H]([C@@H](C)CC)NC(=O)[C@H](CC(C)C)N(C)C(=O)C[C@@H](C(=O)N(C)C)N(C)C(=O)[C@H](C2CCCC2)N(C)C(=O)C2(CCC2)NC(=O)[C@@H]2CCCN2C(=O)[C@H](CCc2ccc(C(F)(F)F)c(Cl)c2)NC(=O)CN(C)C(=O)[C@@H]1Cc1ccc(C(F)(F)F)cc1 [PP0435] ([NMeL]I[NMeA][Aze][NPrPhe(4-CF3)][Sar][hPhe(3-Cl-4-CF3)]P[Ac4c][NMeGly(cPent)][NMeD]-NMe2; lactam N-11)			2.6	C (A compound having a KD ratio of 0.1 or more and less than 3 is denoted as C)	C (A compound having a KD ratio of 0.1 or more and less than 3 is denoted as C)	
CCCN1C(=O)CN(C)C(=O)CNC(=O)[C@H]([C@@H](C)CC)NC(=O)[C@H](CC(C)C)N(C)C(=O)C[C@@H](C(=O)N(C)C)N(C)C(=O)[C@H](C2CCCC2)N(C)C(=O)C2(CCC2)NC(=O)[C@@H]2C[C@@H](OCC)CN2C(=O)[C@H](CCc2ccc(C(F)(F)F)c(Cl)c2)NC(=O)CN(C)C(=O)[C@@H]1Cc1ccc(C(F)(F)F)cc1 [PP0422] ([NMeL]IG[Sar][NPrPhe(4-CF3)][Sar][hPhe(3-Cl-4-CF3)][Hyp](Et)[Ac4c][NMeGly(cPent)][NMeD]-NMe2; lactam N-11)			1.6	B (a compound having 3 or more and less than 10 is denoted as B)	B (a compound having 3 or more and less than 10 is denoted as B)	
CCO[C@@H]1C[C@H]2C(=O)NC3(CC(C)(C)C3)C(=O)N(C)[C@@H](CC3CCC3)C(=O)N(C)[C@H](C(=O)N(C)C)CC(=O)N(C)[C@@H](COC)C(=O)N[C@@H]([C@@H](C)CC)C(=O)N(C3CC3)CC(=O)N(C)[C@H]3C/C=C\CCN(C3=O)[C@@H](Cc3ccc(C(F)(F)F)cc3)C(=O)N(C)CC(=O)N[C@@H](CCc3ccc(Cl)c(Cl)c3)C(=O)N2C1 [PP2821]	A (a compound having 10 or more and less than 20 is denoted as A)	A (a compound having 10 or more and less than 20 is denoted as A)	90.4			
